Measurements published in patent US20010006697A1, “Composition and method for producing low cholesterol eggs” (priority 1997, published 2001).
Several values for one entry are separate records, joined by “and”; a condition that tells them apart may be missing. Identical values can stand only once. Like-named read-outs stand apart in the source and are kept apart here. Marks after values point to notes of the source that are not given here.

Columns and labels:
laying hens [1] = experiment: Yolk cholesterol contents of eggs from statin-treated laying hens; format: in vivo, White Leghorn hens
Experimental: Agric. […] Hens were treated as described in Example 1. […] The eggs were hard-cooked, and the yolks were separated, weighed, and crumbled. […] Agric. […] Egg homogenate filtrates were analyzed for cholesterol as described in Rudel, L. L. and Morris, M. D., J. Lipid Res. 14:364-366 (1973).

laying hens [2] = experiment: Egg production, egg weights and yolk weights of statin-treated laying hens; format: in vivo, White Leghorn hens
Experimental: Hens were treated as described in Example 1. Egg yolk was weighed as outlined in Example 2.

laying hens [3] = details: 0.03% of diet; day 35, fasted 15 hours
plasma VLDL particles [4] = details: day 35
plasma VLDL particles [5] = details: day 35; remark: listed apart in the source
laying hens [6] = experiment: Liver cholesterol content; details: day 35
[7] = 0.06% of diet, week 5 (maximal reduction for simvastatin, lovastatin)
[8] = 0.03% of diet, Overall (weeks 1-5)
[9] = 0.06% of diet, Overall (weeks 1-5)

With `CCC(C)(C)C(=O)O[C@H]1C[C@@H](C)C=C2C=C[C@H](C)[C@H](CC[C@@H]3C[C@@H](O)CC(=O)O3)[C@H]21` [Simvastatin] the “Yolk cholesterol content, mg cholesterol/g yolk” value (laying hens [1]; 0.03% of diet, Week 0) was 10.8 ± 0.2^a mg cholesterol/g yolk, the “Yolk cholesterol content, mg cholesterol/yolk” value (laying hens [1]; 0.03% of diet, Week 0) was 189.7 ± 6.1^a mg cholesterol/yolk and the “Yolk cholesterol content, mg cholesterol/g yolk” value (laying hens [1]; 0.03% of diet, Week 1) was 11.2 ± 0.2^a,b mg cholesterol/g yolk. For the same compound, the “Yolk cholesterol content, mg cholesterol/yolk” value (laying hens [1]; 0.03% of diet, Week 1) was 192.9 ± 5.3^a mg cholesterol/yolk, the “Yolk cholesterol content, mg cholesterol/g yolk” value (laying hens [1]; 0.03% of diet, Week 2) was 10.3 ± 0.2^c,d mg cholesterol/g yolk and the “Yolk cholesterol content, mg cholesterol/g yolk” value (laying hens [1]; 0.03% of diet, Week 3) was 10.0 ± 0.1^c,d mg cholesterol/g yolk. For the same compound, the “Yolk cholesterol content, mg cholesterol/yolk” value (laying hens [1]; 0.03% of diet, Week 3) was 166.2 ± 2.7^b mg cholesterol/yolk, the “Yolk cholesterol content, mg cholesterol/g yolk” value (laying hens [1]; 0.03% of diet, Week 4) was 10.3 ± 0.2^b,c mg cholesterol/g yolk and the “Yolk cholesterol content, mg cholesterol/g yolk” value (laying hens [1]; 0.03% of diet, Week 5) was 10.1 ± 0.1^b mg cholesterol/g yolk. The “Yolk cholesterol content, mg cholesterol/yolk” value (laying hens [1]; 0.03% of diet, Week 5) was 172.1 ± 2.9^b,c mg cholesterol/yolk, the “Yolk cholesterol content, mg cholesterol/g yolk” value (laying hens [1]; 0.06% of diet, Week 0) was 11.0 ± 0.3^a mg cholesterol/g yolk and the “Yolk cholesterol content, mg cholesterol/yolk” value (laying hens [1]; 0.06% of diet, Week 0) was 191.1 ± 7.9^a mg cholesterol/yolk. For the same compound, the “Yolk cholesterol content, mg cholesterol/g yolk” value (laying hens [1]; 0.06% of diet, Week 1) was 10.7 ± 0.2^b mg cholesterol/g yolk, the “Yolk cholesterol content, mg cholesterol/yolk” value (laying hens [1]; 0.06% of diet, Week 1) was 188.7 ± 9.1^a,b mg cholesterol/yolk and the “Yolk cholesterol content, mg cholesterol/g yolk” value (laying hens [1]; 0.06% of diet, Week 2) was 10.0 ± 0.1^d mg cholesterol/g yolk. For the same compound, the “Yolk cholesterol content, mg cholesterol/yolk” value (laying hens [1]; 0.06% of diet, Week 2) was 170.8 ± 3.0^b mg cholesterol/yolk, the “Yolk cholesterol content, mg cholesterol/g yolk” value (laying hens [1]; 0.06% of diet, Week 3) was 9.8 ± 0.1^d mg cholesterol/g yolk and the “Yolk cholesterol content, mg cholesterol/yolk” value (laying hens [1]; 0.06% of diet, Week 3) was 166.0 ± 4.6^b mg cholesterol/yolk. The “Yolk cholesterol content, mg cholesterol/g yolk” value (laying hens [1]; 0.06% of diet, Week 4) was 9.9 ± 0.3^c mg cholesterol/g yolk, the “Yolk cholesterol content, mg cholesterol/yolk” value (laying hens [1]; 0.06% of diet, Week 4) was 170.4 ± 7.0^b mg cholesterol/yolk and the “Yolk cholesterol content, mg cholesterol/g yolk” value (laying hens [1]; 0.06% of diet, Week 5) was 9.3 mg cholesterol/g yolk and 9.3 ± 0.1^c mg cholesterol/g yolk. For the same compound, the “Yolk cholesterol content, mg cholesterol/yolk” value (laying hens [1]; 0.06% of diet, Week 5) was 158.0 mg cholesterol/yolk and 158.0 ± 2.7^c,d mg cholesterol/yolk, the “yolk cholesterol reduction from control on a per yolk (egg) basis” value (laying hens [1]; [7]) was 22% and the “yolk cholesterol reduction from control per g of yolk (mg/g basis)” value (laying hens [1]; [7]) was 20%. For the same compound, the “Egg weight, g” value (laying hens [2]; [8]) was 63.3 ± 1.4^a,b (141) g, the “Hen-day egg production, %” value (laying hens [2]; [8]) was 80.6 ± 2.3^a,b (141) % and the “Egg weight, g” value (laying hens [2]; 0.03% of diet, Week 1) was 63.8 ± 1.0^a g. The “Hen-day egg production, %” value (laying hens [2]; 0.03% of diet, Week 1) was 80.0 ± 2.5^d %, the “Egg weight, g” value (laying hens [2]; 0.03% of diet, Week 2) was 63.9 ± 0.9^a,b g and the “Hen-day egg production, %” value (laying hens [2]; 0.03% of diet, Week 2) was 85.7 ± 1.5^a,b %. The “Egg weight, g” value (laying hens [2]; 0.03% of diet, Week 3) was 62.5 ± 0.7^b,c g, the “Hen-day egg production, %” value (laying hens [2]; 0.03% of diet, Week 3) was 80.0 ± 1.2^b % and the “Egg weight, g” value (laying hens [2]; 0.03% of diet, Week 4) was 62.8 ± 0.7^b,c g. For the same compound, the “Hen-day egg production, %” value (laying hens [2]; 0.03% of diet, Week 4) was 80.0 ± 1.2^b,c %, the “Egg weight, g” value (laying hens [2]; 0.03% of diet, Week 5) was 62.9 ± 0.7^a,b g and the “Hen-day egg production, %” value (laying hens [2]; 0.03% of diet, Week 5) was 80.0 ± 1.2^b,c %. For the same compound, the “Egg weight, g” value (laying hens [2]; [9]) was 62.0 ± 1.9^a,b (144) g, the “Hen-day egg production, %” value (laying hens [2]; [9]) was 82.3 ± 1.9^a,b (144) % and the “Egg weight, g” value (laying hens [2]; 0.06% of diet, Week 1) was 63.8 ± 1.0^a g. The “Hen-day egg production, %” value (laying hens [2]; 0.06% of diet, Week 1) was 85.7 ± 1.5^b,c %, the “Egg weight, g” value (laying hens [2]; 0.06% of diet, Week 2) was 62.0 ± 1.0^b,c g and the “Hen-day egg production, %” value (laying hens [2]; 0.06% of diet, Week 2) was 82.9 ± 1.0^b %. For the same compound, the “Egg weight, g” value (laying hens [2]; 0.06% of diet, Week 3) was 61.0 ± 1.0^c g, the “Hen-day egg production, %” value (laying hens [2]; 0.06% of diet, Week 3) was 77.1 ± 1.2^b % and the “Egg weight, g” value (laying hens [2]; 0.06% of diet, Week 4) was 62.2 ± 1.0^c,d g. For the same compound, the “Hen-day egg production, %” value (laying hens [2]; 0.06% of diet, Week 4) was 82.9 ± 1.0^b %, the “Egg weight, g” value (laying hens [2]; 0.06% of diet, Week 5) was 60.5 ± 0.8^b g and the “Hen-day egg production, %” value (laying hens [2]; 0.06% of diet, Week 5) was 88.6 ± 1.0^a %. For the same compound, the “change of plasma total cholesterol concentration vs control” value (laying hens [3]) was −36%, the “Plasma VLDL particle Diameter nm” value (plasma VLDL particles [4]; 0.03% of diet) was 35.2 ± 0.1^a,b nm and the “Plasma VLDL particle Diameter nm” value (plasma VLDL particles [4]; 0.06% of diet) was 35.3 ± 0.1^a,b nm. The “Plasma VLDL composition: EC (esterified cholesterol)” value (plasma VLDL particles [5]; 0.03% of diet) was 0.06 ± 0.02^a,b %, the “Plasma VLDL composition: PC (phosphatidylcholine)” value (plasma VLDL particles [5]; 0.03% of diet) was 12.15 ± 0.58^b % and the “Plasma VLDL composition: PE (phosphatidylethanolamine)” value (plasma VLDL particles [5]; 0.03% of diet) was 3.96 ± 0.17^a %. For the same compound, the “Plasma VLDL composition: Protein” value (plasma VLDL particles [5]; 0.03% of diet) was 17.99 ± 1.48^a %, the “Plasma VLDL composition: SM (sphingomyelin)” value (plasma VLDL particles [5]; 0.03% of diet) was 1.77 ± 1.24^a % and the “Plasma VLDL composition: TG (triglyceride)” value (plasma VLDL particles [5]; 0.03% of diet) was 61.23 ± 2.98^a %. The “Plasma VLDL composition: UC (unesterified cholesterol)” value (plasma VLDL particles [5]; 0.03% of diet) was 2.84 ± 0.20^a %, the “Plasma VLDL composition: EC (esterified cholesterol)” value (plasma VLDL particles [5]; 0.06% of diet) was 0.08 ± 0.04^a,b % and the “Plasma VLDL composition: PC (phosphatidylcholine)” value (plasma VLDL particles [5]; 0.06% of diet) was 13.85 ± 0.61^a,b %. The “Plasma VLDL composition: PE (phosphatidylethanolamine)” value (plasma VLDL particles [5]; 0.06% of diet) was 3.65 ± 0.51^a %, the “Plasma VLDL composition: Protein” value (plasma VLDL particles [5]; 0.06% of diet) was 17.06 ± 0.84^a % and the “Plasma VLDL composition: SM (sphingomyelin)” value (plasma VLDL particles [5]; 0.06% of diet) was 0.36 ± 0.23^a %. The “Plasma VLDL composition: TG (triglyceride)” value (plasma VLDL particles [5]; 0.06% of diet) was 62.03 ± 1.53^a %, the “Plasma VLDL composition: UC (unesterified cholesterol)” value (plasma VLDL particles [5]; 0.06% of diet) was 2.97 ± 0.13^a % and the “Liver Cholesterol mg/g liver” value (laying hens [6]; 0.03% of diet) was 3.1 ± 0.10^b mg/g liver. The “Liver Cholesterol mg/liver” value (laying hens [6]; 0.03% of diet) was 86.8 ± 2.9^a mg/liver, the “Liver Cholesterol mg/g liver” value (laying hens [6]; 0.06% of diet) was 2.9 ± 0.04^b,c mg/g liver and the “Liver Cholesterol mg/liver” value (laying hens [6]; 0.06% of diet) was 82.6 ± 1.9^a mg/liver.
